Data from patent EP4624497A1, “PHOSPHOEN[…] PROBE, PREPARATION METHOD THEREFOR AND APPLICATION THEREOF” (priority 2022, dated 2024).

Tested on: 293 cells with optical probe plasmids expressed in the cytosol
Experiment: dynamic monitoring of phosphoenolpyruvate in the cytosol with the optical probe
Format: cell-based
Details: 5 mM Oxalate added, detection continued for 30 minutes, HBSS solution
Protocol: • 1. pCDNA3.1+-based phosphoenolpyruvate optical probe plasmids were transfected into HEK293 by using the transfection reagent Lipofectamine2000 (Invitrogen) and incubated in a cell incubator at 37 °C with 5% CO2. After the exogenous gene was fully expressed for 24~36 hours, the fluorescence detection was performed. • 2. After induction of expression, adherent HEK293 cells were washed three times with PBS and placed in HBSS solution for fluorescence microscopy and microplate reader assays, respectively.
In this example, different localization signal peptides were used to fuse to the optical probe 254/255-TtPFK- I253K/Q254L/R255L/G256F-cpYFP-Y1S which was localized in different organelles.
Thirty-six hours after transfection of 293 cells with optical probe plasmids expressed in the cytosol, the cells were rinsed with PBS, placed in an HBSS solution, and the change in the ratio of the fluorescence intensity at an excitation of 420 nm and an emission of 528 nm to that at an excitation of 485 nm and an emission of 528 nm was detected in a 30-minute period.

How did the 485/420 ratio turn out when O=C(O)C(=O)O [Oxalate] was run?
Its 485/420 ratio is “up to 3.5 times the initial value”.
